From US9682995B2, “Amino-substituted isothiazoles” (BAYER PHARMA AKTIENGESELLSCHAFT, priority 2013, dated 2017)

Assays:
Assay in all cases: Kinase Profiling (KINOMEscan)
Type in all cases: binding
[1] = molecular target: 456 kinases (of these 395 non-mutant kinases) (Homo sapiens, UniProt P42345); conditions: MTOR; 10 μM
[2] = molecular target: 456 kinases (of these 395 non-mutant kinases) (Homo sapiens, UniProt P07949); conditions: RET; 10 μM
[3] = molecular target: 456 kinases (of these 395 non-mutant kinases) (Homo sapiens, UniProt P23443); conditions: S6K1; 10 μM
[4] = molecular target: 456 kinases (of these 395 non-mutant kinases) (Homo sapiens, UniProt P36888, K663Q); conditions: FLT3(K663Q); 10 μM
[5] = molecular target: 456 kinases (of these 395 non-mutant kinases) (Homo sapiens, UniProt Q6ZWH5); conditions: NEK10; 10 μM
[6] = molecular target: 456 kinases (of these 395 non-mutant kinases) (Homo sapiens, UniProt Q96NX5); conditions: CAMK1G; 10 μM
[7] = molecular target: 456 kinases (of these 395 non-mutant kinases) (Homo sapiens, UniProt P16591); conditions: FER; 10 μM
[8] = molecular target: 456 kinases (of these 395 non-mutant kinases) (Homo sapiens, UniProt Q8NE63); conditions: HIPK4; 10 μM
[9] = molecular target: 456 kinases (of these 395 non-mutant kinases) (Homo sapiens, UniProt Q9Y243); conditions: AKT3; 10 μM
[10] = molecular target: 456 kinases (of these 395 non-mutant kinases) (Homo sapiens, UniProt O43683); conditions: BUB1; 10 μM
[11] = molecular target: 456 kinases (of these 395 non-mutant kinases) (Homo sapiens, UniProt P36888, N841I); conditions: FLT3(N841I); 10 μM
[12] = molecular target: 456 kinases (of these 395 non-mutant kinases) (Homo sapiens, UniProt Q9NYY3); conditions: PLK2; 10 μM
[13] = molecular target: 456 kinases (of these 395 non-mutant kinases) (Homo sapiens, UniProt Q9Y2U5); conditions: MAP3K2; 10 μM
[14] = molecular target: 456 kinases (of these 395 non-mutant kinases) (Homo sapiens, UniProt O94921); conditions: PFTK1; 10 μM
[15] = molecular target: 456 kinases (of these 395 non-mutant kinases) (Homo sapiens, UniProt P11362); conditions: FGFR1; 10 μM
[16] = molecular target: 456 kinases (of these 395 non-mutant kinases) (Homo sapiens, UniProt P36894); conditions: BMPR1A; 10 μM
[17] = molecular target: 456 kinases (of these 395 non-mutant kinases) (Homo sapiens, UniProt P48730); conditions: CSNK1D; 10 μM
[18] = molecular target: 456 kinases (of these 395 non-mutant kinases) (Homo sapiens, UniProt O75116); conditions: ROCK2; 10 μM
[19] = molecular target: 456 kinases (of these 395 non-mutant kinases) (Homo sapiens, UniProt Q86Z02); conditions: HIPK1; 10 μM
[20] = molecular target: 456 kinases (of these 395 non-mutant kinases) (Homo sapiens, UniProt Q9BQI3); conditions: EIF2AK1; 10 μM
[21] = molecular target: 456 kinases (of these 395 non-mutant kinases) (Homo sapiens, UniProt Q9BXA7); conditions: TSSK1B; 10 μM
[22] = molecular target: 456 kinases (of these 395 non-mutant kinases) (Homo sapiens, UniProt P00519, H396P); conditions: 10 μM
[23] = molecular target: 456 kinases (of these 395 non-mutant kinases) (Homo sapiens, UniProt P00519, F317L); conditions: 10 μM
[24] = molecular target: 456 kinases (of these 395 non-mutant kinases) (Homo sapiens, UniProt Q5S007); conditions: LRRK2; 10 μM
[25] = molecular target: 456 kinases (of these 395 non-mutant kinases) (Homo sapiens, UniProt P06241); conditions: FYN; 10 μM
[26] = molecular target: 456 kinases (of these 395 non-mutant kinases) (Homo sapiens, UniProt P08581); conditions: MET; 10 μM
[27] = molecular target: 456 kinases (of these 395 non-mutant kinases) (Homo sapiens, UniProt O00444); conditions: PLK4; 10 μM
[28] = molecular target: 456 kinases (of these 395 non-mutant kinases) (Homo sapiens, UniProt Q9UEE5); conditions: DRAK1; 10 μM
[29] = molecular target: 456 kinases (of these 395 non-mutant kinases) (Homo sapiens, UniProt P33981); conditions: TTK; 10 μM
[30] = molecular target: 456 kinases (of these 395 non-mutant kinases) (Homo sapiens, UniProt Q8IVH8); conditions: MAP4K3; 10 μM
[31] = molecular target: 456 kinases (of these 395 non-mutant kinases) (Homo sapiens, UniProt P00519, F317I); conditions: 10 μM

Chain of 456 kinases (of these 395 non-mutant kinases) (Homo sapiens, UniProt P07949) (P07949 29-1114 limits assumed, change not shown): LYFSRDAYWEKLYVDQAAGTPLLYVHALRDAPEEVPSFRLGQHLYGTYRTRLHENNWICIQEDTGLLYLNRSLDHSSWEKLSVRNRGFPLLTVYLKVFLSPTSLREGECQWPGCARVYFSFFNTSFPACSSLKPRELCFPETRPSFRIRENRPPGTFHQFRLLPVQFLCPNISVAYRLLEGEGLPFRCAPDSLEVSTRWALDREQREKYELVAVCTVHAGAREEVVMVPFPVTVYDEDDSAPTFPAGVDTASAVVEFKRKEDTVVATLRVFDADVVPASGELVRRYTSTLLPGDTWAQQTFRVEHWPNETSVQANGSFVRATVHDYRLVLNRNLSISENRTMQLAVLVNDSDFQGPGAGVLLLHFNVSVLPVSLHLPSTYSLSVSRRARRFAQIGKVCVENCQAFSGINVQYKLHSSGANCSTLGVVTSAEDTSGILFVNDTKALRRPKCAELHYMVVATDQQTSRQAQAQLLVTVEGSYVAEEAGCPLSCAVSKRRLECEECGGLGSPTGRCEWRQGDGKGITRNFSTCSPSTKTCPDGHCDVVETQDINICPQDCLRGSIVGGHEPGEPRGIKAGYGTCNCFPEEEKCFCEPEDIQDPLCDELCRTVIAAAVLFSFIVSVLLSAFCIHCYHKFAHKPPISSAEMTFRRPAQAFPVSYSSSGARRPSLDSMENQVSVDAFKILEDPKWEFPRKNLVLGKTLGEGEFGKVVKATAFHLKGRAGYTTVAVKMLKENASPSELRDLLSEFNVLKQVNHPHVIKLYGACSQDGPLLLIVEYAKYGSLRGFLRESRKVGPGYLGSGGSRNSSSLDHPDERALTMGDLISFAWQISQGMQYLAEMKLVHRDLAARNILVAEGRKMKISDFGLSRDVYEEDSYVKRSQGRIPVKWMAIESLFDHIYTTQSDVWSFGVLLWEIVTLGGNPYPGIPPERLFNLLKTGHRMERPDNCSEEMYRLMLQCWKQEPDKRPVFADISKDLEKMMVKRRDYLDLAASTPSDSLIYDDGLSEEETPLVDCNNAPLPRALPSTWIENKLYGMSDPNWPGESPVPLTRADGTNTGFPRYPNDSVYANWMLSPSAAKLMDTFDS
Chain of 456 kinases (of these 395 non-mutant kinases) (Homo sapiens, UniProt Q9Y243) (Q9Y243 2-479 limits assumed, change not shown): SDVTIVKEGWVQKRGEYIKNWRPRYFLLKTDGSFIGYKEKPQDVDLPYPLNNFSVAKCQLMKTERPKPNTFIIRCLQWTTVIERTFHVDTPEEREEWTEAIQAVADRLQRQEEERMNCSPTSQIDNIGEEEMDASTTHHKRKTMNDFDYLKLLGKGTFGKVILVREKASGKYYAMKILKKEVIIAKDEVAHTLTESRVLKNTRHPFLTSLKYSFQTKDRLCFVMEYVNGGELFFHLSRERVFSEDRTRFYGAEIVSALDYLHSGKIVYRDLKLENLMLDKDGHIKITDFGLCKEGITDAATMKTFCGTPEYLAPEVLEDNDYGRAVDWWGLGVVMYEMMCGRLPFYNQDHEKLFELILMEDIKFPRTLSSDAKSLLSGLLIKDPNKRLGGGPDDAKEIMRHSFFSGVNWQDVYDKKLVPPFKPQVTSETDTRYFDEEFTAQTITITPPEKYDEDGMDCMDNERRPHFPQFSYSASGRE
Chain of 456 kinases (of these 395 non-mutant kinases) (Homo sapiens, UniProt P06241) (P06241 2-537 limits assumed, change not shown): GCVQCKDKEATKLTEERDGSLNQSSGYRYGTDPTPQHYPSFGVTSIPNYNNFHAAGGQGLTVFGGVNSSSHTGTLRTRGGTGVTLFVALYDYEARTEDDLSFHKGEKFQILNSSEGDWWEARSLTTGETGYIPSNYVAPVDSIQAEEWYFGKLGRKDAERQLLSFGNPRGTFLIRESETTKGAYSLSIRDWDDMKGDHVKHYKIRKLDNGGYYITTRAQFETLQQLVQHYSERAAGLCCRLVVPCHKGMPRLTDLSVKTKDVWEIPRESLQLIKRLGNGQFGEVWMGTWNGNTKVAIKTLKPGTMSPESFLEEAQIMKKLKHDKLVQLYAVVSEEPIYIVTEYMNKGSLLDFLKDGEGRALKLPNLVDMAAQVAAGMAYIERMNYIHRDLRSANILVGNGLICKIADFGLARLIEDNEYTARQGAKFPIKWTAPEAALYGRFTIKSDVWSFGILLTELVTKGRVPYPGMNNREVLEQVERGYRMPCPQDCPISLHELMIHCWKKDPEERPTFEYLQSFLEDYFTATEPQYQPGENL
Chain of 456 kinases (of these 395 non-mutant kinases) (Homo sapiens, UniProt P36894) (P36894 24-532 limits assumed, change not shown): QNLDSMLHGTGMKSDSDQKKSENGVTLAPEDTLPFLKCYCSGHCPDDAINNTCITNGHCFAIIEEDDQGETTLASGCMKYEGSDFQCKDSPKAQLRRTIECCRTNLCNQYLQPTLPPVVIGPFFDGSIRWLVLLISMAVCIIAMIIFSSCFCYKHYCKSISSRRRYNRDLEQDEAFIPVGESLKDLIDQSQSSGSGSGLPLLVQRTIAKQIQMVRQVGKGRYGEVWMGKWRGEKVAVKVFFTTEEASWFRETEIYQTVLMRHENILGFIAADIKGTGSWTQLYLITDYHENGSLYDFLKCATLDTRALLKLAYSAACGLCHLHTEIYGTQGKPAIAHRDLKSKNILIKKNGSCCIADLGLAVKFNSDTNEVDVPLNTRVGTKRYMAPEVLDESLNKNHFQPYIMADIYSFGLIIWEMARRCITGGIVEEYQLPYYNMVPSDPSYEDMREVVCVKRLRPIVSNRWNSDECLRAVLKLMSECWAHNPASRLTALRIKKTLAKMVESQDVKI
Chain of 456 kinases (of these 395 non-mutant kinases) (Homo sapiens, UniProt P11362) (P11362 22-822 limits assumed, change not shown): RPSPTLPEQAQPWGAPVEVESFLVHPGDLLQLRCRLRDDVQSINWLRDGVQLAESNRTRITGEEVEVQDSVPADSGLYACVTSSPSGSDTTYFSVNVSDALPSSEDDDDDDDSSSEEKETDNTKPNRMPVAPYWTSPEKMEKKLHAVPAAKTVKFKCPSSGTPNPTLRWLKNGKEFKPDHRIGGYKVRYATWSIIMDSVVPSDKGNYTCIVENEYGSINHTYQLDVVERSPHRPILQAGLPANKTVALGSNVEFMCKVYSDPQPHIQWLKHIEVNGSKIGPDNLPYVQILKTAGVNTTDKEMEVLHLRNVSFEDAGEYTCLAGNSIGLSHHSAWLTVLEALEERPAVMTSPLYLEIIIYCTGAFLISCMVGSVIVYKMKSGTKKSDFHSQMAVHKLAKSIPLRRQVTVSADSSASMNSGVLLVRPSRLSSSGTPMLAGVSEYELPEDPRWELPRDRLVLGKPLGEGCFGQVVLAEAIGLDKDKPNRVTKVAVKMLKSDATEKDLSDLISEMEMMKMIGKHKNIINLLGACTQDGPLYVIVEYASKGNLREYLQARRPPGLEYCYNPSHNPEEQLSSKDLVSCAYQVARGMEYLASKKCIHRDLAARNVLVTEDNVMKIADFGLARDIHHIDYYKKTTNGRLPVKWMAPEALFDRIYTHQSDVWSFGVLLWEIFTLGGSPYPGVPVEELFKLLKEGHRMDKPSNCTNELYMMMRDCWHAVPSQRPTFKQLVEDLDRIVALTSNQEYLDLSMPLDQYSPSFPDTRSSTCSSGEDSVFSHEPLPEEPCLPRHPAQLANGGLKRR
Chain of 456 kinases (of these 395 non-mutant kinases) (Homo sapiens, UniProt P08581) (P08581 25-1390 limits assumed, change not shown): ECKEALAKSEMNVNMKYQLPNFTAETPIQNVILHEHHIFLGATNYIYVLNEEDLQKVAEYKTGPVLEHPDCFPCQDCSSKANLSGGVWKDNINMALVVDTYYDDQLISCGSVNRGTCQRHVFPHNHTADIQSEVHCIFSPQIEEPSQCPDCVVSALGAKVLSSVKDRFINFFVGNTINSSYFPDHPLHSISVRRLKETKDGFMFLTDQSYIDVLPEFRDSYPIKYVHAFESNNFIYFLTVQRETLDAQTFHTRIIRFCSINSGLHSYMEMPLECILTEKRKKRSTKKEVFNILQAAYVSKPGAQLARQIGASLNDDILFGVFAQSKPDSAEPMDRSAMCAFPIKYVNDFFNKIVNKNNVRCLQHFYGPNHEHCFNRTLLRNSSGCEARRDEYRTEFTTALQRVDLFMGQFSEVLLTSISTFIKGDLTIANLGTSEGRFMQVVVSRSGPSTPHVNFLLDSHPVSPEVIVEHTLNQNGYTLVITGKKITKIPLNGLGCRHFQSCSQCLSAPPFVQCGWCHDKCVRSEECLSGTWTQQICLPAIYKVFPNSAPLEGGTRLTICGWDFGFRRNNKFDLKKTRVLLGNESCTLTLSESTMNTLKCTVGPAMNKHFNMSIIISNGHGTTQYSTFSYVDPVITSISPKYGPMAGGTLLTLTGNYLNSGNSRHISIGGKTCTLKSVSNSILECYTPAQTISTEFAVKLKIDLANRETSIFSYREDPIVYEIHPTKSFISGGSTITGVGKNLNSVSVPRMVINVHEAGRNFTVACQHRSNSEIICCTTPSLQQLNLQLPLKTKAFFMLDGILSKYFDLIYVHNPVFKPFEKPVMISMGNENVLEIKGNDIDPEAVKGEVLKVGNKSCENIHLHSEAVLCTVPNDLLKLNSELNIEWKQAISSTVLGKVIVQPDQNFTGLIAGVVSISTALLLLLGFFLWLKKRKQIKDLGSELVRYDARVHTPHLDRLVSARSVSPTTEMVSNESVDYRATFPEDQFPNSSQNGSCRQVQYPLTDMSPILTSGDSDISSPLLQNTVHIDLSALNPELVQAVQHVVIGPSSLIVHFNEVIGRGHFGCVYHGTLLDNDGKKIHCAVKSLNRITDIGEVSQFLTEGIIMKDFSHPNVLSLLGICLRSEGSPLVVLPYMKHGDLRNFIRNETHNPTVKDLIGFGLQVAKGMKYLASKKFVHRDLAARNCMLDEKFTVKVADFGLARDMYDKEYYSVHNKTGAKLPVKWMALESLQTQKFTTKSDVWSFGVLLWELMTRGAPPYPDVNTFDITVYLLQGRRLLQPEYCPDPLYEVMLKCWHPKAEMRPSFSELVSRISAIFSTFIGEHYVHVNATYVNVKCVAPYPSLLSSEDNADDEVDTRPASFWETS

CCc1ccccc1NC(=O)c1c(C)nsc1Nc1cnc2cc(F)ccc2n1 [Example 20, N-(2-Ethylphenyl)-5-[(6-fluoroquinoxalin-2-yl)amino]-3-methyl-1,2-thiazole-4-carboxamide]
% Ctrl @ 10 μM [1]: 100 % Ctrl
% Ctrl @ 10 μM [2]: 88 % Ctrl
% Ctrl @ 10 μM [3]: 100 % Ctrl
% Ctrl @ 10 μM [4]: 75 % Ctrl
% Ctrl @ 10 μM [5]: 84 % Ctrl
% Ctrl @ 10 μM [6]: 86 % Ctrl
% Ctrl @ 10 μM [7]: 100 % Ctrl
% Ctrl @ 10 μM [8]: 97 % Ctrl
% Ctrl @ 10 μM [9]: 100 % Ctrl
% Ctrl @ 10 μM [10]: 100 % Ctrl
% Ctrl @ 10 μM [11]: 84 % Ctrl
% Ctrl @ 10 μM [12]: 90 % Ctrl
% Ctrl @ 10 μM [13]: 100 % Ctrl
% Ctrl @ 10 μM [14]: 93 % Ctrl
% Ctrl @ 10 μM [15]: 94 % Ctrl
% Ctrl @ 10 μM [16]: 100 % Ctrl
% Ctrl @ 10 μM [17]: 86 % Ctrl
% Ctrl @ 10 μM [18]: 100 % Ctrl
% Ctrl @ 10 μM [19]: 100 % Ctrl
% Ctrl @ 10 μM [20]: 100 % Ctrl
% Ctrl @ 10 μM [21]: 100 % Ctrl
% Ctrl @ 10 μM ([22]; ABL1(H396P)-nonphosphorylated): 100 % Ctrl
% Ctrl @ 10 μM ([22]; ABL1(H396P)-phosphorylated): 92 % Ctrl
% Ctrl @ 10 μM ([23]; ABL1(F317L)-nonphosphorylated): 100 % Ctrl
% Ctrl @ 10 μM ([23]; ABL1(F317L)-phosphorylated): 100 % Ctrl
% Ctrl @ 10 μM [24]: 95 % Ctrl
% Ctrl @ 10 μM [25]: 57 % Ctrl
% Ctrl @ 10 μM [26]: 100 % Ctrl
% Ctrl @ 10 μM [27]: 100 % Ctrl
% Ctrl @ 10 μM [28]: 100 % Ctrl
% Ctrl @ 10 μM [29]: 72 % Ctrl
% Ctrl @ 10 μM [30]: 83 % Ctrl
% Ctrl @ 10 μM ([31]; ABL1(F317I)-nonphosphorylated): 100 % Ctrl
% Ctrl @ 10 μM ([31]; ABL1(F317I)-phosphorylated): 86 % Ctrl
